Literature values in US20020077465A1, “ADAM polynucleotides, polypeptides, and antibodies” (priority 2000, published 2002).
Where a SMILES comes first, the peptide text is derived from it. [ ]: non-standard residue; d: D form. The star is where a group is joined. 4Abz = Nc1ccc(C(=O)O)cc1; NHOH = ON*

What was measured:
[1] = tested on: viruses containing the K103N mutation
[2] = tested on: protease inhibitor-resistant viruses
[3] = tested on: lamivudine-resistant isolates; conditions: a substantial proportion of lamivudine-resistant isolates
MMP-1 = target: T1, MMP-1 (Homo sapiens, UniProt P03956); conditions: read-out: IC50 against MMP-1
T1 sequence (P03956 100-469): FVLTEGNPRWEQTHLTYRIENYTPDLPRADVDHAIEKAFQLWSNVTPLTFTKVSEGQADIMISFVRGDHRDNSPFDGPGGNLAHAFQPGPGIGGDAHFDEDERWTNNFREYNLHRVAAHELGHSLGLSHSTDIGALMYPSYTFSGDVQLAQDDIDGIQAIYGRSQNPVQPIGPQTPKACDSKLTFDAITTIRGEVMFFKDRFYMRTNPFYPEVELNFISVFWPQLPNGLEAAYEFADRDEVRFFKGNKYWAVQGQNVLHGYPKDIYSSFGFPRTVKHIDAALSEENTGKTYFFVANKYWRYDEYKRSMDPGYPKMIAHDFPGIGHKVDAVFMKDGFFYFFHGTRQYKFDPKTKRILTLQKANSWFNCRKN

MMP-9 = MMP-9 (Homo sapiens, UniProt P14780); conditions: read-out: IC50 against MMP-9
Sequence of MMP-9 (P14780 94-707, species assumed): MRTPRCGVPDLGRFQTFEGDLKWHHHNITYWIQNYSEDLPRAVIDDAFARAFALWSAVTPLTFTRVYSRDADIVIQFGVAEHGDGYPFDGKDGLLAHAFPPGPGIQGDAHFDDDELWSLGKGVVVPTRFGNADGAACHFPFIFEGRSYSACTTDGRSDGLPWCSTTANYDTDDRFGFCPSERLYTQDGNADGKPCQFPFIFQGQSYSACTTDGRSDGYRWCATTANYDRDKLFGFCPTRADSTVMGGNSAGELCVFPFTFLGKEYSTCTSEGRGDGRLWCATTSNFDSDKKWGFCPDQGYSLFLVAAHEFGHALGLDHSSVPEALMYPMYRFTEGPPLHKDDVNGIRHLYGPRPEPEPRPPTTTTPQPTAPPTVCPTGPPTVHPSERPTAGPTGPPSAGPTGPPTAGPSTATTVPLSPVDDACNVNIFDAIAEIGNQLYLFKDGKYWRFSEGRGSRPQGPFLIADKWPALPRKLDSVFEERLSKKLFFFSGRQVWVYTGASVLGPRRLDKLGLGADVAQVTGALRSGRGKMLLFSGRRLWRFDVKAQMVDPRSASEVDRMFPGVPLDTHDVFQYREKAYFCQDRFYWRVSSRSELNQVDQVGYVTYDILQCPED

MMP-3 = MMP-3 (Homo sapiens, UniProt P08254); conditions: read-out: IC50 against MMP-3
Sequence of MMP-3 (P08254 100-477, species assumed): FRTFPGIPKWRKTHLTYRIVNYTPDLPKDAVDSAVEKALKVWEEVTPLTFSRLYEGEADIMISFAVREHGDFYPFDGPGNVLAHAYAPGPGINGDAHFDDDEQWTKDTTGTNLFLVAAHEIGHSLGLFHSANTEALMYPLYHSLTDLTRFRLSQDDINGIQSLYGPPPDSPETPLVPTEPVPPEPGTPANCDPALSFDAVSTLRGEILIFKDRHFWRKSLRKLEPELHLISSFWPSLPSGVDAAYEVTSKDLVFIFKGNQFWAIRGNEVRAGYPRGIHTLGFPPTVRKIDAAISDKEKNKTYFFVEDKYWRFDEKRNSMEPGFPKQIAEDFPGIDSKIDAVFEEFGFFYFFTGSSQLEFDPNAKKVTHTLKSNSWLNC

MMP-8 = MMP-8 (Homo sapiens, UniProt P22894); conditions: read-out: IC50 against MMP-8
Sequence of MMP-8 (P22894 101-467, species assumed): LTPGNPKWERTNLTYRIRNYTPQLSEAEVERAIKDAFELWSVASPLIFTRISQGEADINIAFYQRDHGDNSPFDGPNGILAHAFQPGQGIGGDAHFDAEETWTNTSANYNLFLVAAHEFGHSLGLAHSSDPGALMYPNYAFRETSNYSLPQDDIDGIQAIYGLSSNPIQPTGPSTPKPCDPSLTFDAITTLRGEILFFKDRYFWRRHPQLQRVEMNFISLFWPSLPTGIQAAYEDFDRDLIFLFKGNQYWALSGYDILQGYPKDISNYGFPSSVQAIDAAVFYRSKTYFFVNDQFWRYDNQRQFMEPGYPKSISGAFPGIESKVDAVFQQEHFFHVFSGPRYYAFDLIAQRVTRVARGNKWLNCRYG

[4] = tested on: human metastatic melanoma (M24 cells)
M24 cells = conditions: murine metastasis model
angiogenesis = conditions: both in vitro and in vivo

In the case of `Nc1nc(=O)n([C@H]2C=C[C@@H](CO)O2)cc1F` [D-D4FC], the “activity against AZT/3TC-resistant virus” value (AZT/3TC-resistant virus) is listed as “activity against AZT/3TC-resistant virus”.

In the case of `CC[C@H]1C(=O)Nc2ccc(F)cc2N1C(=O)OC(C)C` [GW-420867X], the “greater activity than HBY097” value (HIV; relative to HBY097) is listed as 25 fold and the “activity against viruses containing the K103N mutation / K103N mutants” value [1] is listed as “active against K103N mutants”.

In the case of `C[C@H](Sc1nc(N)cc(Cl)n1)c1cc2ccoc2cn1` [PNU-142721], the “greater activity than its predecessor delavirdine” value (HIV; relative to delavirdine) is given as 20- to 50 fold and the “activity against viruses containing the K103N mutation / K103N mutants” value [1] is given as “active against K103N mutants”.

In the case of `Cc1ccccc1CNC(=O)[C@H]1N(C(=O)[C@@H](O)[C@H](Cc2ccccc2)NC(=O)c2cccc(O)c2C)CSC1(C)C` [AG-1776], the “in vitro activity against protease inhibitor-resistant viruses” value [2] is given as “in vitro activity”.

For `Nc1ccn([C@H]2CO[C@@H](CO)S2)c(=O)n1` [dOTC], the “activity against lamivudine-resistant isolates” value [3] is listed as “retains activity”.

In the case of `CC(C)C[C@@H](NC(=O)[C@@H]1CCCN1C(=O)CNC(=O)c1ccc(N)cc1)C(=O)N[C@H](C)C(=O)NO` [MMP inhibitor I] (H-[4Abz]GP[dL][dA]-{NHOH}), the IC50 (MMP-1) is given as 1 µM, the IC50 (MMP-9) is given as 30 µM and the IC50 (MMP-3) is given as 150 µM. For the same molecule, the IC50 (MMP-8) was 1 µM.

For contortrostatin, the “inhibition of M24 cell adhesion to laminin” value ([4]; laminin) is listed as “not”, the “inhibition of M24 cell adhesion to type I collagen, vitronectin, and fibronectin” value ([4]; type I collagen, vitronectin, fibronectin) is listed as “inhibit” and the “inhibition of lung colonization of M24 cells” value (M24 cells) is listed as “inhibits”.

In the case of `Nc1nc(=O)n([C@@H]2CS[C@H](CO)O2)cc1F` [COVIRACIL, emtricitabine], the “greater activity in vitro than lamivudine (3TC)” value (HIV; in vitro, relative to lamivudine (3TC)) is listed as 3- to 10 fold.

B1: METH1 polypeptides: metalloprotease thrombospondin polypeptides encoded by the human METH1 gene (WO99/37660) (protein, UniProt Q9UHI8 253-967, looked up)
A disintegrin and …: FVSSHRYVETMLVADQSMAEFHGSGLKHYLLTLFSVAARLYKHPSIRNSVSLVVVKILVIHDEQKGPEVTSNAALTLRNFCNWQKQHNPPSDRDAEHYDTAILFTRQDLCGSQTCDTLGMADVGTVCDPSRSCSVIEDDGLQAAFTTAHELGHVFNMPHDDAKQCASLNGVNQDSHMMASMLSNLDHSQPWSPCSAYMITSFLDNGHGECLMDKPQNPIQLPGDLPGTSYDANRQCQFTFGEDSKHCPDAASTCSTLWCTGTSGGVLVCQTKHFPWADGTSCGEGKWCINGKCVNKTDRKHFDTPFHGSWGMWGPWGDCSRTCGGGVQYTMRECDNPVPKNGGKYCEGKRVRYRSCNLEDCPDNNGKTFREEQCEAHNEFSKASFGSGPAVEWIPKYAGVSPKDRCKLICQAKGIGYFFVLQPKVVDGTPCSPDSTSVCVQGQCVKAGCDRIIDSKKKFDKCGVCGGNGSTCKKISGSVTSAKPGYHDIITIPTGATNIEVKQRNQRGSRNNGSFLAIKAADGTYILNGDYTLSTLEQDIMYKGVVLRYSGSSAALERIRSFSPLKEPLTIQVLTVGNALRPKIKYTYFVKKKKESFNAIPTFSAWVIEEWGECSKSCELGWQRRLVECRDINGQPASECAKEVKPASTRPCADHPCPQWQLGEWSSCSKTCGKGYKKRSLKCLSHDGGVLSHESCDPLKKPKHFIDFCTMAECS
In the case of B1, the inhibition of angiogenesis (angiogenesis) is given as “potent inhibitors”.
